From PMC6694155, “PTPσ inhibitors promote hematopoietic stem cell regeneration” (Nature Communications, 2019)
“And” between values parts separate entries of the source, which are not always exact repeats. Equal entries are not always repeated.

Assays:
[1] = test system: BM cells from irradiated CD45.2+ mice in CD45.1+ recipient mice; test: HSC competitive repopulation assay; format: in vivo, mouse
Experimental: Femurs and tibiae were collected from killed C57BL/6 or Ptprs^−/− mice and flushed with IMDM containing 10% FBS and 1% penicillin–streptomycin for BM cells. PB was collected through sub-mandibular puncture. Cells were filtered through a 40 μM strainer and then treated with ACK lysis buffer (Sigma Aldrich) before antibody staining for flow cytometry. For KSL and CD150^+CD48^−KSL cell analysis, BM cells were stained with allophycocyanin (APC)-and Cy7-conjugated anti-mouse Sca1 (BD Biosciences, #560654, 1:100), phycoerythrin (PE)-conjugated anti-mouse c-kit (BD Biosciences, #553355, 1:100), V450 lineage cocktail (BD Biosciences, 561301, 1:10), Alexa Fluor 488-conjugated anti-mouse CD48 (BioLegend, #103414, 1:100), and Alexa Fluor 647-conjugated anti-mouse CD150 (Biolegend, #115918, 1:100) antibodies. […]
CFC assays (colony-forming unit-granulocyte monocyte), burst-forming unit-erythroid, and CFU-GEMM were performed using MethoCult GF M3434 (Stemcell Technologies)[6]. […] Multilineage donor hematopoietic cell engraftment was measured in the PB by flow cytometry.

[2] = test system: RHOA-GTP in BM lin− cells; test: G-LISA activation assay: RHOA-GTP; format: cell-based, mouse; details: for RHOA-GTP level (G-LISA): Supplementary Figure 7b (left panel)
Experimental: The RAC1-GTP, RHOA-GTP, and CDC42-GTP activation levels in BM lin^− cells were measured using a colorimetric-based RAC1-, RHOA-, and CDC42 G-LISA Activation Assay Kit (Cytoskeleton, Inc.). BM cells from femurs and tibias were isolated from 12-week-old Ptprs^+/+ and Ptprs^−/− mice. Cells were then depleted of lineage-committed cells with Direct Lineage Cell Depletion Kit (Miltenyi Biotec, #130-110-470; 1:5). The BM lin^− cell fraction was then serum starved in Iscove’s modified Dulbecco’s medium (IMDM) and treated with either vehicle (equal amount of DMSO) or 1 μg/mL DJ001 for 10 min at 37 °C. After treatment, cells were washed with ice-cold PBS and then placed in lysis buffer supplemented with protease inhibitor. Lysate concentrations were measured by Pierce^TM BCA Protein Assay Kit (ThermoFisher Scientific). G-LISA was performed according to the manufacturer’s instructions. Briefly, 12.5 μg of lysates was added to a GTP-binding protein pre-coated plate and active RAC1-GTP, RHOA-GTP, or CDC42-GTP levels were measured at 490 nm using a PowerWave XS2 microplate reader (BioTek).

BM KSL cells = test: Annexin V/7AAD apoptosis assay of BM KSL cells from mice 24 h post 500 cGy TBI; format: in vivo, mouse
Experimental: Eight- to ten-week-old female C57BL/6 mice were irradiated with 500 cGy TBI followed by subcutaneous injections of 5 mg/kg DJ001 or vehicle, or 5 mg/kg DJ001 plus 40 mg/kg EHT1864. Twenty four hours after irradiation, mice were killed to collect BM cells for Annexin V apoptosis analysis. BM cells were stained with APC-Cy7-conjugated anti-mouse Sca1 (BD Biosciences, #560654, 1:100), PE-conjugated anti-ckit (BD Biosciences, #553355, 1:100), and V450 lineage cocktail (BD Biosciences, #561301, 1:10) antibodies for 30 min at 4 °C. Cells were then resuspended in 1× Annexin V binding buffer and then stained with FITC-conjugated anti-Annexin V antibody (BD Biosciences, #556547,1:50) and 7AAD antibody (BD Biosciences, #559925, 1:40)[68]. For in vitro human BM cell apoptosis assays, isolated human BM CD34^+ cells were plated into 96-well plates and then irradiated with 300 cGy. Immediately after irradiation, cells were treated with 5 μg/mL DJ001 or vehicle for 24 h and then collected for Annexin V cell apoptosis analysis. For cell cycle analysis, BM KSL cells were irradiated at 300 cGy and then treated with 1 μg/mL DJ001 or vehicle for 36 h. Subsequently, cells were resuspended in 200 μL of PBS, fixed with 1 mL of ice-cold fixation solution (0.25% Saponin, 2.5% PFA, 2% fetal calf serum (FCS) in PBS), and incubated for 30 min on ice. Cells were washed in Saponin buffer (0.25% Saponin, 2% FCS in PBS) and resuspended in 200 μL of Saponin buffer containing 20 μL of FITC-conjugated anti-Ki67 antibody (BD Biosciences, #556026, 1:10) and 1 μL of RNase (Qiagen, #19101, 100 mg/mL). After 30 min of incubation, cells were washed in Saponin buffer and resuspended for flow analysis in 200 μL of Saponin buffer containing 5 μL 7AAD (BD Biosciences, #559925, 1:40).

SMILES: O=C(/C=C\Nc1cccc([N+](=O)[O-])c1)c1ccccc1 [DJ001, (Z)-3-((3-nitrophenyl)amino)-1-phenylprop-2-en-1-one]
- percentages of donor myeloid cells, B cells and T cells in PB vs control ([1]; 20 weeks post transplant): significantly increased percentages
- donor hematopoietic reconstitution over time compared with controls ([1]; donors: 750 cGy, 5 mg/kg DJ001 daily, BM at day +10): significantly increased donor hematopoietic reconstitution
- activation of RhoA ([2]; BM lin− cells, 1 μg/mL DJ001, 10 min): did not alter the activation
- RHOA-GTP level (G-LISA) ([2]; Ptprs+/+ cells): 0.1099 and 0.0821 and 0.1369
- RHOA-GTP level (G-LISA) ([2]; Ptprs-/- cells): 0.1117 and 0.0668 and 0.0845
- percentage of apoptotic BM KSL cells vs vehicle (BM KSL cells; 24 h following 500 cGy TBI): significantly decreased the percentage of apoptotic BM KSL cells
- Figure 3e: Annexin V/7AAD apoptosis of BM KSL cells (BM KSL cells; 24 h post 500 cGy TBI, individual mice): 14.6 and 11.3 and 12.5 and 12.9 and 14.7 and 10.4 and 14.5 and 15.5 and 16.7
